Several values for one entry are separate records, joined by “and”; a condition that tells them apart may be missing. Identical values can stand only once.
Molecular target: T1, hP2X7R (Homo sapiens, UniProt Q99572)
T1 sequence (Q99572 1-595): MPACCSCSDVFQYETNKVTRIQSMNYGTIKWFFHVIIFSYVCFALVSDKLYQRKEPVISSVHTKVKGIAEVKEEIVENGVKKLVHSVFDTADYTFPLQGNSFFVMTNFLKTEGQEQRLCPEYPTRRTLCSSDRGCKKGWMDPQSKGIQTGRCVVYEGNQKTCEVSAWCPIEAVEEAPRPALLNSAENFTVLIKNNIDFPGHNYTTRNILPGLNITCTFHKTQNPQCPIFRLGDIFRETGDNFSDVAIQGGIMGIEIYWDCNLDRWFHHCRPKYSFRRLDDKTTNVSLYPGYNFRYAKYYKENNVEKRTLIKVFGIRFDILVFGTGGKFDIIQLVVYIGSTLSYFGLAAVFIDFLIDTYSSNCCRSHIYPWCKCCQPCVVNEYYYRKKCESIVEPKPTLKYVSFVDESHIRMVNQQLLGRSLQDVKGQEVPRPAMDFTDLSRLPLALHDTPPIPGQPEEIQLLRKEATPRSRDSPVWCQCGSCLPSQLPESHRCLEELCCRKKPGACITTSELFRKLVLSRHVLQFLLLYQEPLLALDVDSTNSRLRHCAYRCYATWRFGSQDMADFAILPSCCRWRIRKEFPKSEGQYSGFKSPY
Assay: TEVC determination of antagonist binding kinetics in Xenopus oocytes
Type: cell-based
Parameters: expressed in transfected cells; host or cells: Xenopus laevis oocytes injected with capped cRNA (modified pUC19 vector, T7)
Settings: for IC50: Supplementary Fig. 10D, read-out: IC50 from binding equilibrium (plateau) dose inhibition curve; for off-rate of binding to the hP2X7R: graphically determined (y-intercept); for off-rate, Response [%]: single replicates
Experimental: Xenopus laevis frogs were from Nasco International (Fort Atkinson, WI) and kept at the Core Facility Animal Models (CAM) of the Biomedical Center (BMC) of LMU Munich, Germany (Az:4.3.2–5682/LMU/BMC/CAM) in accordance with the EU Animal Welfare Act. Ovaries were surgically extracted (ROB_54-011-AZ 2532.Vet_02-23-166), treated with collagenase (Nordmark, Uetersen, Germany 1.0–1.5 mg/mL, ≥2 at RT) and defolliculated (15-min treatment in Ca^2+-free oocyte Ringer (90 mM NaCl, 1 mM KCl, 2 mM MgCl2, 5 mM HEPES), respectively. 50 nL of cRNA (0.5 µg/µL) were injected using a Nanoject II injector (Science Products, Drummond) and oocytes were kept in ND96 (96 mM NaCl, 2 mM KCl, 1 mM MgCl2, 1 mM CaCl2, 5 mM HEPES, pH 7.4–7.5). The plasmid containing the hP2X7R was linearized with NotI-HF (NEB) and purified with the MinElute Reaction Cleanup Kit (Qiagen, Hilden, Germany). Capped cRNA was synthesized using the mMESSAGE mMACHINE™ T7 Transcription Kit (ThermoFisher Scientific, Schwerte, Germany) and dissolved in nuclease-free water (500 ng/µL). Injected oocytes were allowed to express for at least 36 hours.
Two-electrode voltage clamp recordings were performed at room temperature and a holding potential of −70 mV using a Turbo Tec-05X Amplifier (npi electronic, Tamm, Germany), a magnetic valve system, and CellWorks E 5.5.1 software. Currents were filtered at 1 kHz and digitized at 200 Hz. Electrode resistances were below 1.2 MΩ. […] Recordings were performed in ND96.
After obtaining reproducible agonist-evoked responses, solutions were switched to antagonist-containing recording solutions with and without ATP to determine association rates. Responses following antagonist application were normalized to the preceding, stabilized agonist responses. Dissociation was determined in 1- or 2 min intervals when currents were reduced to <10%. Association curves were fit to the data by the equation % Response = (100-Plateau)*exp(-kobs*Time) + Plateau, where Plateau indicates the response at equilibrium and kobs the experimentally determined on-rate. All data were analyzed using Prism software (GraphPad Software, Inc., Version 8.3.0, San Diego, CA) and are presented as means ± SD from at least three oocytes. […] The final concentration of DMSO in the recording solution was ≤1%.
Supplementary Fig. 10: Kinetics of ligands binding to the hP2X7R measured by TEVC. (A) […]
All data represented as mean ± S.D. with n=3, 7, 7, and 7 f or the experiments performed at 3 nM, 10 nM, 30 nM, and 100 nM […]
(B) Representative current traces for t he activation
(C) On- and off-r at e constants and Ki
Observed on- r at es kobs were determined by fitting the data (Fig. 4H, Supplementary Fig. 10A) to the function: % response = (100- Plateau)*exp(-kobs*time)+Plateau and plotted against the antagonist concentrations to obtain koff according to k obs=kon*F+koff. Assuming a (simplified) 1:1 binding model, of f-r at e constant koff and Ki values were estimated using the previous formulas as well as Ki=koff/kon. […]
determined by Ca2+ imaging (18 nM, Fig. 3B ) and the binding equilibrium reached at each […]
values of UB-MBX-46 c annot reflect an accurate value due to the nearly negligible dissociation on the timescale of the experiment. If k off was estimated based on the IC50 value (IC50 = koff/kon panel D), a more accurate koff value can be obtained. Numbers in square brackets are 95% Confidence Intervals. *values obtained from an extrapolated dose inhibition curve from D . (D) The plateau values, representing the binding equilibrium, were used to generate dose inhibition

## O=C(NNc1ccccc1Cl)C12CC3CC(CC(C3)C1)C2 [UB-ALT-P30, reference compound]
Ki=koff/kon, 1:1 binding model
  Ki: 0.028 µM
TEVC
  IC50: 0.015 µM
  off-rate of binding to the hP2X7R: 0.29 min⁻¹
Log [Antagonist] M -7
  Response %, plateau (binding equilibrium): 5.6% and 1.4% and 0% and 2.8%
Log [Antagonist] M -8
  Response %, plateau (binding equilibrium): 55.2% and 63.2% and 73.1%
Time 2 min
  off-rate, Response [%]: 6.1% and 5.1% and 4% and 3.2% and 6.5%
Time 4 min
  off-rate, Response [%]: 18.2% and 19.2% and 16% and 12.9% and 19.4%
Time 6 min
  off-rate, Response [%]: 33.3% and 37.2% and 28% and 29% and 32.3%
Time 8 min
  off-rate, Response [%]: 48.5% and 57.7% and 44% and 38.7% and 48.4%
Time 10 min
  off-rate, Response [%]: 63.6% and 73.1% and 60% and 54.8% and 64.5%

## CC12CC3CC1(C)C1(C)CC3(C(=O)NNc3ccccc3Cl)CC21C [UB-MBX-46]
3 nM, 8 min
  Response [%], on-rate to hP2X7R: 81.7% and 82.6% and 84.4%
3 nM, 10 min
  Response [%], on-rate to hP2X7R: 79.7% and 80.2% and 82.1%
3 nM, 12 min
  Response [%], on-rate to hP2X7R: 77.1% and 77.3% and 80.4%
3 nM, 14 min
  Response [%], on-rate to hP2X7R: 75.7% and 75% and 78.9%
3 nM, 16 min
  Response [%], on-rate to hP2X7R: 74.3% and 73.3% and 77.9%
3 nM, 18 min
  Response [%], on-rate to hP2X7R: 72.4% and 72% and 76.9%
3 nM, 20 min
  Response [%], on-rate to hP2X7R: 71.3% and 75.5%
3 nM, 22 min
  Response [%], on-rate to hP2X7R: 71.1% and 69.9% and 74.3%
3 nM, 24 min
  Response [%], on-rate to hP2X7R: 70.1% and 68.7% and 73%
3 nM, 26 min
  Response [%], on-rate to hP2X7R: 68.4% and 67% and 71.9%
3 nM, 28 min
  Response [%], on-rate to hP2X7R: 67.5%
10 nM, 8 min
  Response [%], on-rate to hP2X7R: 46.2% and 42.1% and 45.9% and 43.2%
10 nM, 10 min
  Response [%], on-rate to hP2X7R: 38.5% and 32.7% and 36.4% and 35.2%
10 nM, 12 min
  Response [%], on-rate to hP2X7R: 32.3% and 28.4% and 29.5% and 27.9%
10 nM, 14 min
  Response [%], on-rate to hP2X7R: 27.8% and 23.8% and 23.7% and 22%
10 nM, 16 min
  Response [%], on-rate to hP2X7R: 24.1% and 19.5% and 19% and 18.8%
10 nM, 18 min
  Response [%], on-rate to hP2X7R: 21.6% and 17% and 14.3% and 15.8%
10 nM, 20 min
  Response [%], on-rate to hP2X7R: 17.8% and 14.3% and 12.1% and 13.7%
10 nM, 22 min
  Response [%], on-rate to hP2X7R: 14.9% and 12.5% and 10.6% and 11.9%
10 nM, 24 min
  Response [%], on-rate to hP2X7R: 12.6% and 11.2% and 8.8% and 10.6%
10 nM, 26 min
  Response [%], on-rate to hP2X7R: 11% and 9.8% and 7.8% and 9.3%
30 nM, 10 min
  Response [%], on-rate to hP2X7R: 13.8% and 4.3% and 7.1% and 7.5%
30 nM, 12 min
  Response [%], on-rate to hP2X7R: 8.8% and 2.5% and 5.3% and 5.2%
30 nM, 14 min
  Response [%], on-rate to hP2X7R: 6% and 1.6% and 3.8% and 3.4%
30 nM, 16 min
  Response [%], on-rate to hP2X7R: 4.7% and 0.9% and 2.8% and 2.9%
30 nM, 18 min
  Response [%], on-rate to hP2X7R: 3% and 0.6% and 2.3% and 2%
30 nM, 20 min
  Response [%], on-rate to hP2X7R: 1.7% and 0.4% and 2%
30 nM, 22 min
  Response [%], on-rate to hP2X7R: 1.2% and 0.4% and 1.8%
100 nM, 8 min
  Response [%], on-rate to hP2X7R: 0.4% and 0.9% and 0.6% and 1.9%
TEVC, 300 µM ATP, 100 nM antagonist
  antagonism of the hP2X7R: strong antagonism
TEVC
  IC50: 0.0038 µM
  off-rate of binding to the hP2X7R: 0.07 min⁻¹
Log [Antagonist] M -7
  Response %, plateau (binding equilibrium): 0.2985% and 1.206% and 0.0001019% and 1.64%
Log [Antagonist] M -7.5
  Response %, plateau (binding equilibrium): 0.2898% and 1.031% and 2.642% and 2.211%
Log [Antagonist] M -8
  Response %, plateau (binding equilibrium): 7.079% and 5.855% and 4.45E-19% and 3.075%
Log [Antagonist] M -8.5
  Response %, plateau (binding equilibrium): 67.01% and 62.07% and 63.87%
Time 1 min
  off-rate, Response [%]: 2.6% and 0.9% and 1.5%
Time 2 min
  off-rate, Response [%]: 2.8% and 1.3% and 1.5%
Time 3 min
  off-rate, Response [%]: 3.3% and 1.5% (2×)
Time 4 min
  off-rate, Response [%]: 3.1% and 1.7% and 1.5%
Time 5 min
  off-rate, Response [%]: 2.6% and 1.7% and 1.5%
Time 6 min
  off-rate, Response [%]: 2.6% and 2% and 1.5%
Time 7 min
  off-rate, Response [%]: 2.9% and 2.3% and 1.5%
Time 8 min
  off-rate, Response [%]: 2.9% and 2.3% and 1.5%
Time 9 min
  off-rate, Response [%]: 2.9% and 2.5% and 1.5%
Time 10 min
  off-rate, Response [%]: 3.3% and 2.5% and 1.5%
Within 10 min of wash-out
  antagonist dissociation from the hP2X7R: virtually irreversible binding

Reference: article PMC12436592 (Nature Communications, 2025)
